According to paper PMC2845880 (Bioorganic & medicinal chemistry letters, 2010):

How the values were obtained:
[1] = tested on: T. b. brucei, T. cruzi, Leishmania infantum, Plasmodium falciparum; test: In vitro biological evaluation against protozoa; format: cell-based; conditions: in vitro protozoa panel
TbMCA2 = target: T1, TbMCA2 (Trypanosoma brucei brucei, UniProt Q8T8E7); test: In vitro inhibition of TbMCA2; format: biochemical; conditions: P1 tail modification / peptoid backbone
T1 sequence (Q8T8E7 1-347): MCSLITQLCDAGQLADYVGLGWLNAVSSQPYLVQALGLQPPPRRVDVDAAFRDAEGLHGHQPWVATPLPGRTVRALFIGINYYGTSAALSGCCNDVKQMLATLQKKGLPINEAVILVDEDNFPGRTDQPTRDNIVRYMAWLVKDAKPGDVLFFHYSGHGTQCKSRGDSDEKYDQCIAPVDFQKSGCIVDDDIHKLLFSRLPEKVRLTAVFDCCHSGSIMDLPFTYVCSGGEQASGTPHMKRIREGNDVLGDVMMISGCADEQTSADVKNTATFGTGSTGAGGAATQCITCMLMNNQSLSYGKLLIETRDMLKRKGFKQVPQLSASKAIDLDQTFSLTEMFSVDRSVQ

[2] = tested on: human lung fibroblasts (MRC-5); test: Cytotoxicity on human lung fibroblasts; format: cell-based
[3] = tested on: Plasmodium falciparum (ring stage and schizont); test: In vitro antiparasitic evaluation against Plasmodium falciparum; format: cell-based

SMILES	Antiparasitic activity (in words) [1]	Antiparasitic activity against P. falciparum (in words) [3]	other results
N#C[C@H](CCCNC(=N)N)NC(=O)OCc1ccccc1 [Compound 1]	no antiparasitic activity	–	–
N#C[C@H](Cc1ccc(N)cc1)NC(=O)OCc1ccccc1 [Compound 2]	–	–	Activity on TbMCA2 (in words) (TbMCA2): inactive
N#C[C@H](Cc1ccc(NC(=N)N)cc1)NC(=O)OCc1ccccc1 [Compound 3]	–	–	Activity on TbMCA2 (in words) (TbMCA2): inactive
N=C(N)NCCC[C@H](NC(=O)OCc1ccccc1)C(=O)c1nc2ccccc2s1 [Compound 11]	–	very modest	Cytotoxicity (in words) [2]: without cytotoxicity
Cn1c(C(=O)[C@H](CCCNC(=N)N)NC(=O)OCc2ccccc2)nc2ccccc21 [Compound 14]	–	very modest	–
N=C(N)NCCC[C@@H](/C=C/S(=O)(=O)c1ccccc1)NC(=O)OCc1ccccc1 [Compound 15]	–	modest antiparasitic activity	–
NCCCC[C@H](NC(=O)OCc1ccccc1)C(=O)c1nc2ccccc2s1 [Compound 16]	modest antiparasitic activities	–	–
N=C(N)NCCCC[C@H](NC(=O)OCc1ccccc1)C(=O)c1nc2ccccc2s1 [Compound 17]	modest antiparasitic activities	–	–
